Measurements taken from patent publication US6441167B1, “Cinoxacin lanthanide chelates and their use as biomolecular probes” (SmithKline Beecham plc, priority 1998, dated 2002).

Tests used:
[1] = Excitation and emission spectra and time resolved fluorescence decays of Europium chelates; type: physicochemical
Method: Below are some typical excitation and emission spectra, alone with time resolved fluorescence decays for Europium chelates of this invention. All spectra and decay measurements were recorded on an Amino Bowman Spectrophotometer (model AB2), with a time resolution of 50 us.
The characteristic narrow emission bands of europium is observed at around 614 nm. The excitation spectrum for the 614 nm emission band peaks at 355 nm, and at least 50% of this intensity is achieved with excitation wavelengths up to 375 nm.
As with the vast majority of fluorescence compounds, the sensitiser group itself has a very short fluorescence lifetime. […] However, as is clearly shown by the decay traces the fluorescence of the Eu^3+ incorporated in the chelate (at 614 nm) has a characteristically long lifetime that enables a time-resolved discrimination between the Eu-containing chelate and other fluorescent compounds. The Eu fluorescence lifetime was fitted with a single exponential fit giving a lifetime of 633 us.

[2] = tested on: Cy5-labelled peptides; assay: Time resolved fluorescence resonance energy transfer from Cin-DTPA-SA to Cy5-labelled peptide; conditions: 100 nM Cin-DTPA-SA; saturating concentrations of Cy5-peptide; λex=340 nm
Method: Cin-DTPA-SA (100 nM) in PBS/Tween was mixed with increasing concentrations (0.1-1000 nM) of N-Succ-(Cy5-NH-K)AERAQAGVVNASSRLAE(K-NH-Biotin)-CO2H (where underlined letters refer to single amino acid codes) prepared by reaction of the corresponding unlabelled peptide with the N-hydroxysuccinimide esters of biotin and Cy5 (Amersham). After 30 minutes incubation at room temperature, the fluorescence intensity of the sample (λex=340 nm, λem=615 nm or 664 nm) was determined using a time gate of 400 us, 400 us read time, 1000 us cycle time for europium (615 nm) fluorescence and a time gate of 70 us, 200 us read time, 1000 us cycle time for Cy5 (664 nm) fluorescence. The 615 nm fluorescence decreased in a peptide concentration dependent manner by 62-67% at saturating concentrations of Cy5-peptide whilst the 664 nm fluorescence increased in a saturable manner from 1000 counts/second to 8,000 counts/second at saturating concentration of peptide. […] In addition, titration of 10 nM Cin-DTPA-SA with biotinylated allophycocyanin (Bt-APC, 0.5-500 nM, Sigma) in PBS/Tween was associated with an increase in the fluorescence signal at 664 nm from 1000 counts/second to 3,500 counts/second at 500 nM Bt-APC, again indicating energy transfer from the chelate to the acceptor.
The Eu^3+ fluorescence decreases and the Cy5 fluorescence increases as the Cy5-labelled peptide is titrated in. […]

[3] = Time resolved fluorescence signal of streptavidin conjugate (Wallac Victor); type: physicochemical; conditions: 50 nM in 100 uL; 400 us delay, 400 us read, cycle time 1000 us
Method: The reaction mixtures (549 ul) were then desalted into phosphate buffered saline containing 0.05% Tween 20 (PBS/Tween, Sigma) and 500 ul fractions were collected and assayed for protein content (Coomassie Blue Reagent, Biorad). The concentration of the pooled fractions (2 ml, 14 uM) was determined by Coomassie staining using streptavidin as a standard. […] 50 nM Cin-DTPA-SA gave 10,000 counts per second in 100 uL using these conditions. Improved labelling conditions yielding brighter conjugates, were obtained by freshly dissolving the Cin-DTPA-APA-chlorotriazine in 100% DMSO, increasing the pH of the reaction mixture to 9.0 in Bicarbonate buffer, and increasing the reaction time to approximately 16 hours at 4° C.

CCn1nc(C(=O)NCCNC(=O)CN(CCN(CCN(CC(=O)O)CC(=O)O)CC(=O)O)CC(=O)O)c(=O)c2cc3c(cc21)OCO3 [Cinoxacin-DTPA]
fluorescence lifetime of the chromophore ([1]; at 421 nm, time resolution 50 us): too short to be reliably detected | Eu fluorescence lifetime ([1]; at 614 nm, single exponential fit): 633 us | emission bands of europium ([1]; in the presence of Eu^3+): around 614 nm | excitation spectrum peak for the 614 nm emission band ([1]; in the presence of Eu^3+): 355 nm | excitation wavelengths at which at least 50% of peak intensity is achieved ([1]; in the presence of Eu^3+, 614 nm emission): up to 375 nm

Cin-DTPA-SA: streptavidin labelled with Cinoxacin-DTPA-APA-chlorotriazene (D5) and loaded with Eu^3+
decrease of 615 nm fluorescence [2]: 62-67% | time resolved fluorescence signal [3]: 10,000 counts per second

Cinoxacin-DTPA-Cinoxacin
decay of the chromophore ([1]; at 430 nm, in the presence of Eu^3+): too fast for detection
